Measurements: patent US8063095B2, “IAP BIR domain binding compounds” (Pharmascience Inc., priority 2005, dated 2011)
pEC50, pIC50, pKi: −log10 of the molar value.

Legend:
[1] = target: T1, XIAP L-Bir2-Bir3 (GST-XIAP Linker Bir2Bir3RING fusion protein) (Homo sapiens, UniProt P98170); experiment: Caspase de-repression assay using cellular extracts (apoptosome), L-Bir2-Bir3 XIAP; type: biochemical; details: 293 cell S100 extract; effective concentration to achieve 50% of activation
T1 construct: made in house; host or cells: E. coli DH5-alpha
Protocol: GST-linker BIR2BIR3Ring: XIAP coding sequence from amino acids 93-497 cloned into PGex4T1 via BamH1 and XhoI. Amino acids 93-497 were amplified from full length XIAP in pGex4t3, using the primers: […] and GCTGCATGTGTGTCAGAGG, using standard PCR conditions. The PCR fragment was TA cloned into pCR-2.1 (invitrogen). Linker BIR2BIR3Ring was subcloned into pGex4T1 by BamHI/XhoI digestion. The plasmid was transformed into E. coli DH5α for use in protein expression and purification. […]
100 ug of 293 cell S100 extract and 0.25 uM-2 uM of GST-XIAP fusion protein (XIAP-Bir3RING, XIAP-Linker Bir2Bir3RING, or full-length XIAP) were co-incubated with serial dilutions of compound (40 uM-5 pM). Caspases present in the extracts were activated by adding 1 mM dATP, 0.1 mM ALLN, 133 ug Cytochrome C (final concentrations), and incubating at 37° C. for 25 minutes. All reactions and dilutions used S100 buffer (50 mM Pipes pH 7.0, 50 mM KCl, 0.5 mM EGTA pH 8.0, 2 mM MgCl2 supplemented with 1/1000 dilutions of 2 mg/ml Cytochalisin B, 2 mg/ml Chymotstatin, Leupeptin, Pepstatin, Antipain, 0.1M PMSF, 1M DTT). Final reaction volume was 30 ul. Caspase-3 activity was measured by overlaying 30 ul of a 0.4 mM DEVD-AMC solution. released AMC cleavage was measured in a TECAN spectrophotometer at 360 nm excitation and 444 nm emission, on a kinetic cycle of 1 hour with readings taken every 5 minutes. Caspase activity was calculated as Vo of AMC fluorescence/sec. Caspase de-repression by our compounds was compared to fully activated extract and activated extract repressed by the presence of XIAP fusion protein.

[2] = target: T2, XIAP bir3 domain (GST-XIAP BIR3RING) (Homo sapiens, UniProt P98170); experiment: Fluorescence polarization-based competition assay, XIAP; type: binding; details: Ki calculated from displacement of fluorescent probe; read-out: Fluorescent polarization (FP) assay Xiap
T2 construct: made in house; host or cells: E. coli DH5-alpha
Protocol: GST-XIAP BIR3RING: XIAP coding sequence amino acids 246-497 cloned into PGEX2T1 via BamH1 and AVA I. The plasmid was transformed into E. coli DH5a for use in protein expression and purification.
(§1) A fluorescent peptide probe, Fmoc-Ala-Val-Pro-Phe-Tyr(t-Bu)-Leu-Pro-[…]-Gly-OH was prepared using standard Fmoc chemistry on 2-chlorotrityl chloride resin (Int. J. Pept. Prot. Res. 38:555-561, 1991). Cleavage from the resin was performed using 20% acetic acid in dichloromehane (DCM), which left the side chain still blocked. The C-terminal protected carboxylic acid was coupled to 4′-(aminomethy)fluorescein (Molecular Probes, A-1351; Eugene, Oreg.) using excess diisopropylcarbodiimide (DIC) in dimethylformamide (DMF) at room temperature and was purified by silica gel chromatography (10% methanol in DCM). The N-terminal Fmoc protecting group was removed using piperidine (20%) in DMF, and purified by silica gel chromatography (20% methanol in DCM, 0.5% HOAc). Finally, the t-butyl side chain protective groups were removed using 95% trifluoroacetic acid containing 2.5% water and 2.5% triisopropyl silane.
(§2) For all assays, the fluorescence and fluorescence-polarization was evaluated using a Tecan Polarion instrument with the excitation filter set at 485 nm and the emission filter set at 535 nm. For each assay, the concentration of the target protein was first establish by titration of the selected protein in order to produce a linear dose-response signal when incubated alone in the presence of the fluorescent probe. Upon establishing these conditions, the compounds potency (IC50) and selectivity, was assessed in the presence of a fix defined amount of target protein and fluorescent probe and a 10 point serial dilution of the selected compounds. For each IC50 curve, the assays were run as followed: 25 ul/well of diluted compound in 50 mM MES buffer pH 6.5 were added into a black 96 well plate then 25 ul/well of bovine serum albumin (BSA) at 0.5 mg/ml in 50 mM MES pH 6.5. Auto-fluorescence for each compound was first assessed by performing a reading of the compound/BSA solution alone. Then 25 ul of the fluorescein probe diluted into 50 mM MES containing 0.05 mg/ml BSA were added and a reading to detect quenching of fluorescein signal done. Finally 25 ul/well of the target or control protein (GST-BIRs) diluted at the appropriate concentration in 50 mM MES containing 0.05 mg/ml BSA were added and the fluorescence polarization evaluated.
(§3) For each assay the relative polarization-fluorescence units were plotted against the final concentrations of compound and the IC50 calculated using the Grad pad prism software and/or Cambridge soft. The ki value were derived from the calculated IC50 value as described above and according to the equation described in Nikolovska-Coleska, Z. (2004) Anal Biochem 332, 261-273.

[3] = target: T3, cIAP-1 bir3 domain (GST-HIAP2 (cIAP-1) BIR3) (Homo sapiens, UniProt Q13490); experiment: Fluorescence polarization-based competition assay, cIAP-1; type: binding; details: Ki calculated from displacement of fluorescent probe; read-out: Fluorescent polarization (FP) assay cIAP-1
T3 construct: made in house; host or cells: E. coli DH5-alpha
Protocol: GST-HIAP2 (cIAP-1) BIR3: HIAP2 coding sequence from amino acids 251-363 cloned into PGex4T3 via BamH1 and XhoI. The plasmid was transformed into E. coli DH5α for use in protein expression and purification.
as §1, §2, §3

[4] = target: T4, cIAP-2 bir3 domain (GST-HIAP1(cIAP-2) BIR3) (Homo sapiens, UniProt Q13489); experiment: Fluorescence polarization-based competition assay, cIAP-2; type: binding; details: Ki calculated from displacement of fluorescent probe; read-out: Fluorescent polarization (FP) assay cIAP-2
T4 construct: made in house; host or cells: E. coli DH5-alpha
Protocol: GST-HIAP1(cIAP-2) BIR3: HIAP1 coding sequence from amino acids 236-349, cloned into PGex4T3 via BamH1 and XhoI. The plasmid was transformed into E. coli DH5α for use in protein expression and purification.
as §1, §2, §3

[5] = tested on: MDA-MB-231 (breast) cancer cells; experiment: Cell viability (MTT) assay, MDA cells; details: Homo sapiens, MTT based assay
Protocol: (§4) MDA-MD-231 (breast) and SKOV-3 (ovarian) cancer cells were cultured in RPMI1640 media supplemented with 10% FBS and 100 units/mL of Penicillin and Steptomycin.
(§5) Viability assays were done on a number of cells including MDA-MB-231, SKOV-3, H460, PC3, HCT-116, and SW480 cells. Cells were seeded in 96 well plates at a respective density of 5000 and 2000 cells per well and incubated at 37° C. in presence of 5% CO2 for 24 hours. Selected compounds were diluted into the media at various concentration ranging from 0.01 uM up to 100 uM. Diluted compounds were added onto the MDA-MB-231 cells. For the MDA-MB-231 SKOV3, H460, PC3, HCT-116, and SW480 cells, the compounds were added either alone or in presence of 1-3 ng/ml of TRAIL. After 72 hours cellular viability was evaluated by MTT based assays.

[6] = tested on: SKOV-3 (ovarian) cancer cells; experiment: Cell viability (MTT) assay, SKOV3 cells; details: 72 hours, MTT based assay; compounds added either alone or in presence of 1-3 ng/ml of TRAIL
Protocol: as §4, §5

HCT-116 tumors = experiment: Combination anti-cancer therapy in vivo (HCT-116 tumors, with mitomycin-C); details: HCT-116 tumors in female nude mice
Protocol: Female nude mice received […] HCT-116 subdermally on the right flank. On day 26, when tumors were […], animals were assigned to groups using a balanced design based on tumor size. At that time mitomycin-C and Compound 23 treatment was initated. Mitomycin-C was administered ip at 1 mg/kg, Monday through Friday for two weeks. Compound 23 was given iv at 1 or 5 mg/kg five times per week for the duration of the experiment. Tumor measurements were taken twice weekly.

T2 sequence (P98170 246-497): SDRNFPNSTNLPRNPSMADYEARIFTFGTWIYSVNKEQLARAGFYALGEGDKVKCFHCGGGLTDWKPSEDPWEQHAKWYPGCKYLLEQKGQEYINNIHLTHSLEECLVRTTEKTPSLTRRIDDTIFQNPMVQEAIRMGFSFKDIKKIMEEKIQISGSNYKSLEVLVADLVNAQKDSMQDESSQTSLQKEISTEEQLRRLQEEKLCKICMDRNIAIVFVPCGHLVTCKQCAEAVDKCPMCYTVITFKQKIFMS
T3 sequence (Q13490 251-363): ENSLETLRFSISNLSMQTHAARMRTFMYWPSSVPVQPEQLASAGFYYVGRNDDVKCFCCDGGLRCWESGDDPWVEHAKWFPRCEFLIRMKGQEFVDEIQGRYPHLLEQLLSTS
T1 sequence (P98170 93-497): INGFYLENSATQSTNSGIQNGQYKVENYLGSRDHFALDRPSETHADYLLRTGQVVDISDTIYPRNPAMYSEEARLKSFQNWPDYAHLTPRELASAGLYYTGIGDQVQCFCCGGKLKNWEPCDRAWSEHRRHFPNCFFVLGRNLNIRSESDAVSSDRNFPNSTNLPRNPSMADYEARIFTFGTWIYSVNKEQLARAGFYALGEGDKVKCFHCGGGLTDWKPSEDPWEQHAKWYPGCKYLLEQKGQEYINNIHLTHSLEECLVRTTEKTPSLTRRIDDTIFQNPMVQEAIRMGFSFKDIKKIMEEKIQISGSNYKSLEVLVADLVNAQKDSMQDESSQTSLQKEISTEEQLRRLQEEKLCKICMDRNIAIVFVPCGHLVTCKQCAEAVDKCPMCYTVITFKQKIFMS
T4 sequence (Q13489 236-349): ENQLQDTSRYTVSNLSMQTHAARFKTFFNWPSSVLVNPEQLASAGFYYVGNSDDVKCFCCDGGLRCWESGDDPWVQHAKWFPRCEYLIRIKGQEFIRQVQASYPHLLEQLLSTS

Row | SMILES | pIC50 [1] | pKi [2] | pKi [3] | pKi [4] | pEC50 ([5]; MDA-MB-231, 72 h) | pEC50 [6] | pEC50 ([5]; MDA-MB-231, 72 hours) | anti-tumor effect at 5 mg/kg compared to the 1 mg/kg dose (HCT-116 tumors; 5 mg/kg iv in combination with mitomycin-C ip 1 mg/kg) | anti-tumor effect in combination with mitomycin-C (HCT-116 tumors; iv at 1 or 5 mg/kg five times per week, mitomycin-C ip 1 mg/kg)
1 | CN[C@@H](C)C(=O)N[C@H](C(=O)N1CCC[C@H]1CN(CCc1ccccc1)C(=O)C(F)(F)F)[C@@H](C)OCC#CC#CCO[C@H](C)[C@H](NC(=O)[C@H](C)NC)C(=O)N1CCC[C@H]1CN(CCc1ccccc1)C(=O)C(F)(F)F [Compound 1] | ≥ 7.00 | ≥ 7.00 | ≤ 7.00 | ≤ 7.00 | > 7.00 | > 7.00 |  |  | 
2 | CN[C@@H](C)C(=O)N[C@H](C(=O)N1CCC[C@H]1CN(CCc1ccccc1)C(=O)[C@H](N)Cc1ccc(OC)cc1)[C@@H](C)OCC#CC#CCO[C@H](C)[C@H](NC(=O)[C@H](C)NC)C(=O)N1CCC[C@H]1CN(CCc1ccccc1)C(=O)[C@H](N)Cc1ccc(OC)cc1 [Compound 2] | ≥ 7.00 | ≥ 7.00 | ≥ 7.00 | ≤ 7.00 |  |  | > 7.00 |  | 
3 | CN[C@@H](C)C(=O)N[C@H](C(=O)N1CCC[C@H]1CN(CCc1ccccc1)C(=O)c1ccccc1)[C@@H](C)OCC#CC#CCO[C@H](C)[C@H](NC(=O)[C@H](C)NC)C(=O)N1CCC[C@H]1CN(CCc1ccccc1)C(=O)c1ccccc1 [Compound 3] | ≥ 6.30 | ≥ 7.00 | ≥ 7.00 | ≥ 8.30 | > 7.00 |  |  |  | 
4 | CN[C@@H](C)C(=O)N[C@H](C(=O)N1CCC[C@H]1CN(CCc1ccccc1)S(=O)(=O)c1ccccc1)[C@@H](C)OCC#CC#CCO[C@H](C)[C@H](NC(=O)[C@H](C)NC)C(=O)N1CCC[C@H]1CN(CCc1ccccc1)S(=O)(=O)c1ccccc1 [Compound 4] | ≥ 6.30 | ≥ 8.30 |  |  |  |  | > 7.00 |  | 
5 | CN[C@@H](C)C(=O)N[C@H](C(=O)N1CCC[C@H]1CN(CCc1ccccc1)S(=O)(=O)Cc1ccccc1)[C@@H](C)OCC#CC#CCO[C@H](C)[C@H](NC(=O)[C@H](C)NC)C(=O)N1CCC[C@H]1CN(CCc1ccccc1)S(=O)(=O)Cc1ccccc1 [Compound 6] | ≥ 6.30 | ≥ 8.30 |  |  |  |  | > 7.00 |  | 
6 | CN[C@@H](C)C(=O)N[C@H](C(=O)N1CCC[C@H]1CN(CCc1ccccc1)C(=O)OCc1ccccc1)[C@@H](C)OCC#CC#CCO[C@H](C)[C@H](NC(=O)[C@H](C)NC)C(=O)N1CCC[C@H]1CN(CCc1ccccc1)C(=O)OCc1ccccc1 [Compound 7] | ≥ 6.30 | ≥ 7.00 |  |  |  |  | > 7.00 |  | 
7 | CN[C@@H](C)C(=O)N[C@H](C(=O)N1CCC[C@H]1CN(CCc1ccccc1)S(C)(=O)=O)[C@@H](C)OCC#CC#CCO[C@H](C)[C@H](NC(=O)[C@H](C)NC)C(=O)N1CCC[C@H]1CN(CCc1ccccc1)S(C)(=O)=O [Compound 8] | ≥ 6.30 | ≥ 8.30 |  |  | > 7.00 |  |  |  | 
8 | CN[C@@H](C)C(=O)N[C@@H](COCc1ccc(COC[C@H](NC(=O)[C@H](C)NC)C(=O)N2CCC[C@H]2CN(CCc2ccccc2)C(=O)C(F)(F)F)cc1)C(=O)N1CCC[C@H]1CN(CCc1ccccc1)C(=O)C(F)(F)F [Compound 11] | ≤ 6.00 |  |  | ≤ 7.00 | > 7.00 |  |  |  | 
9 | CN[C@@H](C)C(=O)N[C@@H](COCc1ccc(-c2ccc(COC[C@H](NC(=O)[C@H](C)NC)C(=O)N3CCC[C@H]3CN(CCc3ccccc3)C(=O)C(F)(F)F)cc2)cc1)C(=O)N1CCC[C@H]1CN(CCc1ccccc1)C(=O)C(F)(F)F [Compound 12] | ≤ 6.00 | ≤ 7.00 | ≥ 7.00 | ≥ 8.30 |  |  | > 7.00 |  | 
10 | CN[C@@H](C)C(=O)N[C@@H](COC(=O)CCCCCC(=O)OC[C@H](NC(=O)[C@H](C)NC)C(=O)N1CCC[C@H]1CN(CCc1ccccc1)C(=O)c1ccccc1)C(=O)N1CCC[C@H]1CN(CCc1ccccc1)C(=O)c1ccccc1 [Compound 13] |  | ≥ 7.00 |  |  | > 6.00 |  |  |  | 
11 | CN[C@@H](C)C(=O)N[C@@H](COC(=O)c1ccc(C(=O)OC[C@H](NC(=O)[C@H](C)NC)C(=O)N2CCC[C@H]2CN(CCc2ccccc2)C(=O)c2ccccc2)cc1)C(=O)N1CCC[C@H]1CN(CCc1ccccc1)C(=O)c1ccccc1 [Compound 14] |  | ≥ 7.00 |  |  | > 6.00 |  |  |  | 
12 | CN[C@@H](C)C(=O)N[C@H](C(=O)N1CCC[C@H]1C(=O)N[C@@H]1CCCc2ccccc21)[C@@H](C)OCC#CC#CCO[C@H](C)[C@H](NC(=O)[C@H](C)NC)C(=O)N1CCC[C@H]1C(=O)N[C@@H]1CCCc2ccccc21 [Compound 23] | ≥ 6.30 | ≥ 7.00 | ≥ 8.30 | ≥ 7.00 | > 7.00 | > 7.00 |  | superior anti-tumor effects | increasing anti-tumor effect in combination with mitomycin-C with increasing dose
